Columns and labels:
[1] = system: phospho-AKT in OCI-LY-8 cells; test: phospho-AKT after BCR crosslinking; type: cell-based
Experimental: Activation of the PI3K pathway is an important component of normal B-cell receptor (BCR) signaling and has been implicated in the pathogenesis of DLBCL. […] There was rapid modulation of phospho-AKT and phospho-PRAS40 by 30 minutes, whereas modulation of phospho-S6 was not detected until after 8 hours.
These biochemical findings indicate a mechanistic rationale for combination of PI3K-δ,γ and BTK inhibition.

[2] = system: phospho-BTK in SU-DHL-4; test: phospho-BTK in DLBCL cells; type: cell-based
[3] = system: SU-DHL-4 GCB DLBCL cell line; test: Cell viability with Compound 292, ibrutinib or combination, 72 h CellTiter Glo; type: cell-based; settings: SU-DHL-4, 72 hours
[4] = system: DOHH-2; settings: in combination with Compound 292
Experimental: (§1) The method is described as follows. Cells are thawed from a liquid nitrogen preserved state. Once cells have been expanded and divide at their expected doubling times, screening begins. Cells are seeded in growth media in either black 1536-well or 384-well tissue culture treated plates. […] These Tzero (T0) plates are read using ultra-sensitive luminescence on Envision plate readers (Perkin Elmer). […] All data points are collected via automated processes, quality controlled and analyzed using Zalicus software.
(§2) I ranges from 0% (when T=V) to 100% (when T=0). […] The measure of effect in the experiment can be the inhibition of cellular response relative to the untreated level (vehicle alone). For untreated vehicle and treated levels V and T, a fractional inhibition 1=1−T/V is calculated. The inhibition ranges from 0% at the untreated level to 100% when T=0 Inhibition levels are negative for agents that actually increase levels. Other effect measures, such as an activity ratio r=T/V may be more appropriate for some assays. When activity ratios (e.g, fold increase over […] control) are being used, the effect can be measured using an induction I=1n(T/V). With this definition, all effect expressions are the same as for inhibition.
(§3) Growth Inhibition (GI) is used as a measure of cell viability. […] A GI reading of 100% represents complete growth inhibition-T72 compound-treated and T0 vehicle signals are matched. […] A GI reading of 200% represents complete death of all cells in the culture well. Compounds reaching an activity plateau of GI 200% are considered cytotoxic. GI is calculated by applying the following test and equation: […]
(§4) Combination analysis data were collected in a 6×6 dose matrix. Synergy is calculated by comparing a combination's response to those of its single compound, against the drug-with-itself dose-additive reference model. Deviations from dose additivity may be assessed visually on an isobologram or numerically with a Combination Index (CI). […] Additive effect is CI=1.0. […] Antagonistic effect is CI>1.0.
(§5) To measure combination effects in excess of Loewe additivity, a scalar measure to characterize the strength of synergistic interaction termed the Synergy Score is devised. The Synergy Score is calculated as: […]
(§6) The fractional inhibition for each component agent and combination point in the matrix is calculated relative to the median of all vehicle-treated control wells. The Synergy Score equation integrates the experimentally-observed activity volume at each point in the matrix in excess of a model surface numerically derived from the activity of the component agents using the Loewe model for additivity. Additional terms in the Synergy Score equation (above) are used to normalize for various dilution factors used for individual agents and to allow for comparison of synergy scores across an entire experiment. The inclusion of positive inhibition gating or an Idata multiplier removes noise near the zero effect level, and biases results for synergistic interactions at that occur at high activity levels.
(§7) Loewe Volume (Loewe Vol) is used to assess the overall magnitude of the combination interaction in excess of the Loewe additivity model. Loewe Volume is particularly useful when distinguishing synergistic increases in a phenotypic activity (positive Loewe Volume) versus synergistic antagonisms (negative Loewe Volume). […] This model defines additivity as a non-synergistic combination interaction where the combination dose matrix surface should be indistinguishable from either drug crossed with itself.

[5] = system: Farage; settings: in combination with Compound 292
Experimental: as §1, §2, §3, §4, §5, §6, §7

[6] = system: GRANTA-519; settings: in combination with Compound 292
Experimental: as §1, §2, §3, §4, §5, §6, §7

[7] = system: HBL-1; settings: in combination with Compound 292
Experimental: as §1, §2, §3, §4, §5, §6, §7

[8] = system: HH; settings: in combination with Compound 292
Experimental: as §1, §2, §3, §4, §5, §6, §7

[9] = system: Jeko-1; settings: in combination with Compound 292
Experimental: as §1, §2, §3, §4, §5, §6, §7

[10] = system: KARPAS-299; settings: in combination with Compound 292
Experimental: as §1, §2, §3, §4, §5, §6, §7

[11] = system: KARPAS-422; settings: in combination with Compound 292
Experimental: as §1, §2, §3, §4, §5, §6, §7

[12] = system: Mino; settings: in combination with Compound 292
Experimental: as §1, §2, §3, §4, §5, §6, §7

[13] = system: NCI-H929; settings: in combination with Compound 292
Experimental: as §1, §2, §3, §4, §5, §6, §7

[14] = system: OCI-LY3; settings: in combination with Compound 292
Experimental: as §1, §2, §3, §4, §5, §6, §7

[15] = system: OCI-Ly7; settings: in combination with Compound 292
Experimental: as §1, §2, §3, §4, §5, §6, §7

[16] = system: OPM-2; settings: in combination with Compound 292
Experimental: as §1, §2, §3, §4, §5, §6, §7

[17] = system: SU-DHL-10-epst; settings: in combination with Compound 292
Experimental: as §1, §2, §3, §4, §5, §6, §7

[18] = system: SU-DHL-4-epst; settings: in combination with Compound 292
Experimental: as §1, §2, §3, §4, §5, §6, §7

[19] = system: TMD8; settings: in combination with Compound 292
Experimental: as §1, §2, §3, §4, §5, §6, §7

[20] = system: U-2932; settings: in combination with Compound 292
Experimental: as §1, §2, §3, §4, §5, §6, §7

[21] = system: WSU-NHL; settings: in combination with Compound 292
Experimental: as §1, §2, §3, §4, §5, §6, §7

[22] = system: RL; test: Combination with BTK inhibitor, 72 h ATPLite, 6x6 dose matrix (follicular lymphoma); type: cell-based; settings: in combination with Compound 292
Experimental: as §1, §2, §3, §4, §5, §6, §7

C=CC(=O)N1CCC[C@@H](n2nc(-c3ccc(Oc4ccccc4)cc3)c3c(N)ncnc32)C1 [ibrutinib, 1-[(3R)-3-[4-Amino-3-(4-phenoxyphenyl)pyrazolo[3,4-d]pyrimidin-1-yl]piperidin-1-yl]prop-2-en-1-one]
inhibition of the increase in phospho-AKT [1]: only partially inhibited
inhibition of phospho-BTK [2]: robust inhibition
cell viability, monotherapy [3]: dose dependently inhibited viability
CI50 (growth inhibition) [4]: S (S=0.01 to <0.5)
CI50 (inhibition) [4]: S (S=0.01 to <0.5)
Synergy Score (growth inhibition) [4]: A3 (A3=>3)
Synergy Score (inhibition) [4]: A3 (A3=>3)
CI50 (growth inhibition) [5]: S (S=0.01 to <0.5)
CI50 (inhibition) [5]: S (S=0.01 to <0.5)
Synergy Score (growth inhibition) [5]: A3 (A3=>3)
Synergy Score (inhibition) [5]: A3 (A3=>3)
CI50 (growth inhibition) [6]: S (S=0.01 to <0.5)
Synergy Score (growth inhibition) [6]: A2 (A2=1 to <3)
Synergy Score (inhibition) [6]: A1 (A1=0.0001 to <1)
CI50 (growth inhibition) [7]: S (S=0.01 to <0.5)
Synergy Score (growth inhibition) [7]: A3 (A3=>3)
Synergy Score (inhibition) [7]: A1 (A1=0.0001 to <1)
CI50 (growth inhibition) [8]: S (S=0.01 to <0.5)
CI50 (inhibition) [8]: S (S=0.01 to <0.5)
Synergy Score (growth inhibition) [8]: A2 (A2=1 to <3)
Synergy Score (inhibition) [8]: A2 (A2=1 to <3)
CI50 (growth inhibition) [9]: S (S=0.01 to <0.5)
CI50 (inhibition) [9]: T (T=0.5 to <0.7)
Synergy Score (growth inhibition) [9]: A2 (A2=1 to <3)
Synergy Score (inhibition) [9]: A2 (A2=1 to <3)
Synergy Score (growth inhibition) [10]: A1 (A1=0.0001 to <1)
Synergy Score (inhibition) [10]: A1 (A1=0.0001 to <1)
CI50 (growth inhibition) [11]: S (S=0.01 to <0.5)
CI50 (inhibition) [11]: S (S=0.01 to <0.5)
Synergy Score (growth inhibition) [11]: A2 (A2=1 to <3)
Synergy Score (inhibition) [11]: A2 (A2=1 to <3)
CI50 (growth inhibition) [12]: T (T=0.5 to <0.7)
CI50 (inhibition) [12]: S (S=0.01 to <0.5)
Synergy Score (growth inhibition) [12]: A3 (A3=>3)
Synergy Score (inhibition) [12]: A2 (A2=1 to <3)
CI50 (growth inhibition) [13]: U (U=0.7 to <1)
CI50 (inhibition) [13]: S (S=0.01 to <0.5)
Synergy Score (growth inhibition) [13]: A2 (A2=1 to <3)
Synergy Score (inhibition) [13]: A1 (A1=0.0001 to <1)
Synergy Score (growth inhibition) [14]: A1 (A1=0.0001 to <1)
Synergy Score (inhibition) [14]: A1 (A1=0.0001 to <1)
Synergy Score (growth inhibition) [15]: A1 (A1=0.0001 to <1)
Synergy Score (inhibition) [15]: A1 (A1=0.0001 to <1)
Synergy Score (growth inhibition) [16]: A1 (A1=0.0001 to <1)
Synergy Score (inhibition) [16]: A1 (A1=0.0001 to <1)
CI50 (growth inhibition) [17]: S (S=0.01 to <0.5)
CI50 (inhibition) [17]: S (S=0.01 to <0.5)
Synergy Score (growth inhibition) [17]: A3 (A3=>3)
Synergy Score (inhibition) [17]: A3 (A3=>3)
CI50 (growth inhibition) [18]: S (S=0.01 to <0.5)
CI50 (inhibition) [18]: S (S=0.01 to <0.5)
Synergy Score (growth inhibition) [18]: A3 (A3=>3)
Synergy Score (inhibition) [18]: A3 (A3=>3)
CI50 (growth inhibition) [19]: S (S=0.01 to <0.5)
CI50 (inhibition) [19]: S (S=0.01 to <0.5)
Synergy Score (growth inhibition) [19]: A3 (A3=>3)
Synergy Score (inhibition) [19]: A3 (A3=>3)
CI50 (growth inhibition) [20]: S (S=0.01 to <0.5)
CI50 (inhibition) [20]: T (T=0.5 to <0.7)
Synergy Score (growth inhibition) [20]: A2 (A2=1 to <3)
Synergy Score (inhibition) [20]: A1 (A1=0.0001 to <1)
CI50 (growth inhibition) [21]: T (T=0.5 to <0.7)
CI50 (inhibition) [21]: S (S=0.01 to <0.5)
Synergy Score (growth inhibition) [21]: A3 (A3=>3)
Synergy Score (inhibition) [21]: A3 (A3=>3)
CI50 (growth inhibition) [22]: U (U=0.7 to <1)
CI50 (inhibition) [22]: W (W=≧1)
Synergy Score (growth inhibition) [22]: A2 (A2=1 to <3)
Synergy Score (inhibition) [22]: A2 (A2=1 to <3)

Source: patent US20160113932A1, “TREATMENT OF CANCERS USING PI3 KINASE ISOFORM MODULATORS” (INFINITY PHARMACEUTICALS, INC., priority 2013, published 2016)
